Test results from patent US20060270727A1, “Small molecule therapeutics and uses therefor” (priority 2005, published 2006).
Like-named read-outs stand apart in the source and are kept apart here.

Columns and labels:
[1] = test system: frataxin mRNA in GM15850 FRDA lymphoid cell line; test: qRT-PCR of frataxin mRNA, FRDA cell line; assay type: cell-based, human; conditions: for effect on frataxin mRNA levels, in words: GM15850 FRDA cell line, 7 days incubation
Excerpt: GAA Specific Polyamides Up Regulate Frataxin mRNA and Protein. To assess whether polyamides alleviate transcription inhibition caused by expanded GAA repeats in the frataxin gene, quantitative real time/reverse transcriptase PCR (qRT-PCR) was used to monitor frataxin mRNA levels in the GM15850 and GM15851 lymphoid cell lines described above; levels of glyceraldehyde 3-phosphate dehydrogenase (GAPDH) mRNA were used as an internal control for each RNA sample; see Example 8. No differences in GAPDH were found between the two cell lines. […] No changes in frataxin mRNA levels were observed on shorter incubation times.
Cell Culture. Epstein Barr virus transformed lymphoblast cell lines GM15850 from a FRDA patient (alleles with 650 and 1030 GAA repeats in the frataxin gene, from the Coriell Cell Repository, Camden, N.J.), and GM15851 from an unaffected sibling (normal range of repeats), were propagated in RMPI 1640 medium with 2 mM L-glutamine and 15% fetal bovine serum at 37° C. in 5% CO2. Cell growth and morphology were monitored by phase contrast microscopy and viability by trypan blue exclusion and an ATP assay (ApoSENSOR™, BioVision). Polyamides were added directly to the culture medium in PBS. Nuclear localization of the polyamides was verified by deconvolution microscopy, by methods well known in the art (see e.g., Dudouet et al., Chem. Biol., 2003, 10: 859-867).
Real-Time Quantitative RT-PCR. Real-time quantitative RT-PCR (qRT-PCR) analysis was performed essentially as previously described (Chuma, et al., 2003, Hepatology 37:198-207), using the following primers for the frataxin gene: […]
RNA was standardized by quantification of GAPDH mRNA (Pattyn et al., 2003, Nucleic Acids Res. 31:122-123), and all values are expressed relative to GAPDH. qRT-PCR was performed using iScript One-Step RT-PCR kit with SYBR green (Biorad). Statistical analysis was performed on three independent quantitative RT-PCR experiments for each RNA sample.

[2] = test system: GM15850 FRDA lymphoid cells; test: DNA microarray of global gene expression, FRDA cells; assay type: cell-based, human; conditions: for number of genes with affected mRNA levels: P≦0.005; for gene expression profile approaching that of untreated GM15851 cells, in words: FA1 at 1 μM, FA2 at 2 μM
Description: Effects of Polyamides on Global Gene Expression. DNA microarray analyses (see Example 10) were performed with RNA isolated from GM15850 FRDA and GM15851 normal lymphoid cells that were either untreated or treated with polyamides FA1 (at 1 and 2 μM) or FA2 (at 2 μM) for 7 days on Affymetrix Human Genome U133 Plus 2.0 GeneChips®. These chips contain […] oligonucleotides representing all or nearly all of the genes in the human genome). Experiments were conducted according to manufacturer guidelines. […] Although more genes were judged affected by FA1 at 1 μM than at 2 μM, this difference is largely due to genes whose mRNA levels change by less than […] in either direction, and thus are not highly significant. At 2 μM FA1, 15 genes were increased in expression by greater than 50% and one gene was decreased by 45%. […] For GM15851 cells, two genes were up regulated by FA1, and no genes were down regulated. (Note that the probability that the genes affected in GM15851 cells would be judged significant by chance at P≦0.005 is 0.8-1.0, based on analysis with BRB ArrayTools). […] Strikingly, binding sites for FA1 (5′-AAGAAGAAG-3′, SEQ ID NO: ______) are present in 18/20 genes whose mRNA levels are increased by 1.2-fold or greater in GM15850 cells, although this sequence would be expected to appear at random only once per 262,000 bp in genomic DNA.
DNA Microarrays. FRDA and control lymphoid cells (i.e., lines GM15850 and GM15851, respectively) were incubated with polyamides FA1 (at 1 or 2 μM) or FA2 (at 2 μM), or in the absence of polyamide, in triplicate for seven days prior to RNA purification and microarray analysis. Affymetrix U133A Plus 2.0 GeneChips® were hybridized in groups of eight for each of the three replicates. Raw GeneChip® data were normalized with RMAExpress (Bolstad et al., 2003, Bioinformatics 19:185-193) and the normalized data was filtered to remove probesets called absent on 24 of 24 chips from class comparisons. The Affymetrix probeset-level data was imported to BRB Arraytools (v3.3.0 Beta 3a) selecting the U133 chips used in the experiment and leaving all filters off. For class comparisons between groups of arrays, unpaired samples were used and the random variance model was selected, with the univariate significance threshold set to 0.005. The restrictions for the univariate test were maintained as the default values of 10 for the maximum number of false discovered genes, 0.1 for the maximum proportion of false discoveries, and a 90% confidence level. Because of poor data correlation in one set of replicates, class comparisons were performed using all chips for the control group versus two of the three replicates for the treatment group (i.e., five groups are the minimum number required for class comparisons).

[3] = molecular target: GAA·TTC duplex repeats in the frataxin gene; radiolabeled PCR product containing a (GAA)6 sequence; test: Quantitative DNase I footprinting on (GAA)6 DNA; assay type: binding
Excerpt: Targeting GAA Repeat DNA with Polyamides. β-Alanine linked polyamides FA1-FA6 were synthesized (see Example 6) with sequence, theoretical DNA binding site, theoretical DNA binding site SEQ ID NO: ______) and binding affinity as shown in Table 1. […] Those of skill in the art will recognize that this value may be an underestimation of the affinity of this molecule for GAA repeat DNA since the KD measurements are limited by a minimum DNA concentration of ˜2 pM in the binding reaction. Radiolabeling of nucleic acid incorporated γ^32P ATP and polynucleotide kinase used standard procedures.
Polyamlde Synthesis and Characterization. Polyamides were synthesized by solid phase methods (Urbach & Dervan, Id.; Baird & Dervan, 1996, J. Am. Chem. Soc. 118:6141-6146) and their identity and purity verified by MALDI-TOF MS and analytical HPLC, using methods well known in the art. Fluorescent conjugates were prepared by coupling BODIPY (Molecular Probes) to the carboxyl-terminus (Best et al., 2003, Proc. Natl. Acad. Sci. U.S.A. 100:12063-12068). Binding affinities for match and mismatch sites were determined by quantitative DNase I footprinting (Trauger & Dervan, Id). A plasmid harboring six GAA repeats was constructed by cloning the oligonucleotide
in the pCR2.1 TOPO vector (Invitrogen, Calif.), and a 117 bp singly end-labeled PCR product was generated from this plasmid with the following oligonucleotides:
where the second oligonucleotide was labeled with γ-^32P ATP and polynucleotide kinase, using standard procedures, to generate a PCR product labeled on the GAA strand. A 204 bp singly end-labeled PCR product was derived from plasmid pMP142 DNA, containing 33 GAA repeats (Ohshima et al., Id.), with following oligonucleotides: […]

[4] = (GAA)6 DNA, values in text, read-out: apparent dissociation constant (KD)
[5] = quantitative DNase I footprinting, mean and standard deviation, minimum of two determinations, read-out: Binding affinity (KD)

SMILES	frataxin mRNA as % of the level in the normal cell line ([1]; GM15850, 2 μM) [%]	range of fold increases of frataxin mRNA in numerous experiments ([1]; GM15850, 2 μM) [fold]	increase of frataxin mRNA level ([1]; GM15850, 2 μM, 7 days, relative to GAPDH) [fold]	effect on frataxin mRNA levels, in words [1]	time for frataxin mRNA to decrease to pre-treatment levels after removal of polyamide ([1]; after induction 7 days, transfer to fresh medium lacking polyamide) [h]	effect of higher concentrations or longer incubation on frataxin transcription ([1]; compared with 2 μM, 7-day incubation)	genes with comparable changes (>50% increase or 45% decrease) in mRNA levels ([2]; 1 μM)	number of genes with affected mRNA levels ([2]; 1 μM, 7 days) [genes]	frataxin mRNA level as % of that found in GM15851 cells (microarray) ([2]; 2 μM) [%]	genes decreased in expression (by 45%) ([2]; 2 μM)	genes increased in expression by greater than 50% ([2]; 2 μM) [genes]	increase of frataxin mRNA (microarray) ([2]; 2 μM, 7 days) [fold]	number of genes with affected mRNA levels ([2]; 2 μM, 7 days)	slope of gene expression profile correlation vs untreated GM15851 cells ([2]; 2 μM, untreated FRDA cells 0.97)	gene expression profile approaching that of untreated GM15851 cells, in words [2]	Kd [3, 4] [nM]	Kd [3, 5] [nM]	transcript levels for frataxin (microarray) ([2]; 2 μM, 7 days)	reduction of binding affinity vs match polyamide ([3]; mismatch vs match polyamide (FA2 vs FA1, FA4 vs FA3))
CN(C)CCCNC(=O)CCNC(=O)c1nc(NC(=O)CCNC(=O)c2cc(NC(=O)c3nc(NC(=O)CCNC(=O)c4cc(NC(=O)c5nccn5C)cn4C)cn3C)cn2C)cn1C [FA1, ImPyβImPyβImβDp]	≤ 45	2.0 to 3.6	2.5	increased frataxin mRNA levels	96	Neither higher concentrations of FA1 nor longer incubations times increased frataxin transcription	three genes	51	42	one gene	15	2.5	16 genes	0.69	seen to a lesser degree	0.1	0.11 ± 0.02		
CN(C)CCCNC(=O)CCNC(=O)c1cc(NC(=O)CCNC(=O)c2nc(NC(=O)c3nc(NC(=O)CCNC(=O)c4cc(NC(=O)c5nccn5C)cn4C)cn3C)cn2C)cn1C [FA2, ImPyβImImβPyβDp]				modest increase in frataxin transcription									three genes		not seen	> 100	> 100	not changed	greater than three orders of magnitude
